Data as given in patent publication US5883102A, “Pharmaceutically active compounds” (Astra Pharmaceuticals Limited, priority 1995, dated 1999).
Where a name gives a salt, the structure may show the parent alone.

Biological target: T1, human form of induced nitric oxide synthase (Homo sapiens, UniProt P35228)
T1 construct: Nitric oxide synthase is produced by cells in response to interferon; endogenous in cells; host or cells: DLD1 human colon adenocarcinoma cell line (European Collection of Animal Cell Culture, cell line number 90102540), induced with IL-1beta and IFN-gamma; crude lysate
Assay: activity against the human form of induced nitric oxide synthase, lysate of induced human colon adenocarcinoma cell line DLD1
Assay type: biochemical
Details: IL-1β and IFN-γ induced, preincubated 1 hour at 37° C., then 1 hour at 37° C., read-out: IC50 (concentration of drug substance which gives 50% enzyme inhibition in the assay)

IC50 [µM]	Structure (SMILES)
< 25	NC1=NC(c2ccccc2)Nc2ccccc21 (centres unmarked) [Example 1, 1,2-Dihydro-2-phenyl-4-quinazolinamine hydrochloride]
< 25	CCOC(=O)NCCC1N=C(N)c2ccccc2N1 (centres unmarked) [Example 52, Ethyl N-(4-Amino-1,2-dihydroquinazolin-2-ylethyl)carbamate hydrochloride]
